For experiment [1], the system named is Escherichia coli 0-111. As to the kind of experiment: Therapeutic effects on infected mice. To be noted: Escherichia coli, 0111, sc, 168 h, s.c. single dose immediately after intraperitoneal infection, 7 days observation. Type of experiment: in vivo, Male mouse, ICR/SLC. As to the method: The therapeutic efficacies of several representative compounds [I] of this invention and of cephaloridine on infected mice are also set forth in the tables.
(b) Therapeutic effects on infected mice (Table 3 and Table 4)
Test animal: Male mouse, ICR/SLC
A group of five animals was employed per drug.
Route of infection: Intraperitoneal
Infectious bacteria: Escherichia coli 0-111
Period of observation: 7 days
Method of administration: Test compound (1 mg, 10 mg, 100 mg or 200 mg) was dissolved in sterile saline solution (100 ml) and 0.2 ml of the solution was administered subcutaneously as a single dose immediately after infection. Two fold dilutions of each solution were administered to five groups of 5 mice each.

The next experiment concerns Klebsiella pneumoniae DT. The experiment can be described thus: Minimal inhibitory concentration, agar serial dilution. Type of experiment: cell-based. To be noted: TSA, inoculum 10^7 /ml. The source says:
(§1) (a) Minimal inhibitory concentrations (Table 1 and 2)
(§2) Method: Agar serial dilution

Another experiment relates to Proteus rettgeri GN4733. Described as above. The class given is cell-based. To be noted: TSA, inoculum 10^7 /ml.
From the text: as §1, §2

The next experiment deals with Proteus vulgaris GN4413. Described as above. To be noted: TSA, inoculum 10^7 /ml. Type of experiment: cell-based.
From the text: as §1, §2

Experiment [2] concerns Klebsiella pneumoniae GN-3835. The experiment is described as above. Type of experiment: cell-based. To be noted: TSA, inoculum 10^7 /ml.
From the text: as §1, §2

For experiment [3], the system named is Citrobacter freundii GN1706. The description is as above. Type of experiment: cell-based. To be noted: TSA, inoculum 10^7 /ml.
From the text: as §1, §2

Another experiment has as its system Serratia marcescens TN24. The description is as above. To be noted: TSA, inoculum 10^7 /ml. Type of experiment: cell-based.
From the text: as §1, §2

In another experiment the test system is Proteus rettgeri TN338. The description is as above. To be noted: TSA, inoculum 10^7 /ml. Type of experiment: cell-based.
From the text: as §1, §2

The subject of experiment [4] is Staphylococcus aureus 1840. The experiment is described as above. The class given is cell-based. To be noted: TSA, inoculum 10^7 /ml.
From the text: as §1, §2

The next experiment has as its system Proteus mirabilis GN4359. The experiment is described as above. The class given is cell-based. To be noted: TSA, inoculum 10^7 /ml.
From the text: as §1, §2

A further experiment relates to Proteus morganii IFO3168. Described as above. The class given is cell-based. To be noted: TSA, inoculum 10^7 /ml.
From the text: as §1, §2

Experiment [5] deals with Proteus vulgaris IFO 3988. Described as above. Type of experiment: cell-based. To be noted: TSA, inoculum 10^7 /ml.
From the text: as §1, §2

Experiment [6] has as its system Escherichia coli NIHJ JC-2. Described as above. To be noted: TSA, inoculum 10^7 /ml. The class given is cell-based.
From the text: as §1, §2

For experiment [7], the system named is Escherichia coli 0-111. The description is as above. The class given is cell-based. To be noted: TSA, inoculum 10^7 /ml.
From the text: as §1, §2

Experiment [8] deals with Enterobacter cloacae TN1282. The experiment is described as above. Type of experiment: cell-based. To be noted: TSA, inoculum 10^7 /ml.
From the text: as §1, §2

Experiment [9] deals with Staphylococcus aureus 209P. The experiment is described as above. The class given is cell-based. To be noted: TSA, inoculum 10^7 /ml.
From the text: as §1, §2

Experiment [10] concerns Citrobacter freundii GN99. Described as above. Type of experiment: cell-based. To be noted: TSA, inoculum 10^7 /ml.
From the text: as §1, §2

The test system of experiment [11] is Serratia marcescens IFO 12648. The experiment is described as above. Type of experiment: cell-based. To be noted: TSA, inoculum 10^7 /ml.
From the text: as §1, §2

The subject of another experiment is Escherichia coli T-7. Described as above. Type of experiment: cell-based. To be noted: TSA, inoculum 10^7 /ml.
From the text: as §1, §2

Bounds are passed on as bounds.

In the case of `Cn1nnnc1SCC1=C(C(=O)O)N2C(=O)C(NC(=O)/C(=N\O)c3csc(=N)[nH]3)C2SC1` (stereo not drawn) [Example 12, sodium 7-[2-(2-imino-4-thiazolin-4-yl)-2-hydroxyimino-acetamido]-3-(1-methyl-1H-tetrazol-5-yl)thiomethyl-3-cephem-4-carboxylate (syn-isomer)], in the experiment with Escherichia coli 0-111 [1] (Table 3), the 50% effect level (ED50) was put at a dose of 0.028 mg/kg. The “Minimal inhibitory concentration (MIC)” value in the experiment on Klebsiella pneumoniae DT turned out to be 0.024; in the experiment on Proteus rettgeri GN4733, 0.05; in the experiment with Proteus vulgaris GN4413, 6.25; in experiment [2] it was 0.10; in experiment [3] it was 0.10; in the experiment on Serratia marcescens TN24, 0.39. Also, the “Minimal inhibitory concentration (MIC)” value is recorded as ≤ 0.012 in the experiment with Proteus rettgeri TN338; 0.78 in [4]; 0.10 in the experiment on Proteus mirabilis GN4359; 0.024 in the experiment with Proteus morganii IFO3168; 0.05 in experiment [5]; 0.05 in experiment [6]. Also, the “Minimal inhibitory concentration (MIC)” value was ≤ 0.012 in the experiment on Escherichia coli 0-111 [7]; 1.56 in experiment [8]; 0.39 in experiment [9]; 0.05 in [10]; 0.78 in experiment [11]; 0.78 in the experiment with Escherichia coli T-7.

On to `Cc1nnc(SCC2=C(C(=O)O)N3C(=O)C(NC(=O)/C(=N\O)c4csc(=N)[nH]4)C3SC2)s1` (stereo not drawn) [Example 16, sodium 7-[2-(2-imino-4-thiazolin-4-yl)-2-hydroxyimino-acetamido]-3-(2-methyl-1,3,4-thiadiazol-5-yl)thiomethyl-3-cephem-4-carboxylate (syn-isomer)], for which the ED50 (commonly the dose that gives a 50% effect, or the effect in half of the subjects) with Escherichia coli 0-111 [1] (Table 4) was found to be 0.035 mg/kg. The “Minimal inhibitory concentration (MIC)” value in the experiment with Klebsiella pneumoniae DT is 0.05; in the experiment on Proteus rettgeri GN4733, 0.10; in the experiment with Proteus vulgaris GN4413, 6.25; in experiment [2] it was 0.20; in experiment [3], 0.20; in the experiment with Serratia marcescens TN24 it was 0.78. Also, the “Minimal inhibitory concentration (MIC)” value with Proteus rettgeri TN338 was ≤ 0.012; in experiment [4], 0.78; in the experiment with Proteus mirabilis GN4359, 0.20; in the experiment with Proteus morganii IFO3168 it was 0.05; in experiment [5], 0.10; in experiment [6], 0.10. Also, the “Minimal inhibitory concentration (MIC)” value in the experiment on Escherichia coli 0-111 [7] is reported as 0.024; in [8], 6.25; in experiment [9] it was 0.39; in experiment [10], 0.10; in experiment [11], 3.13; in the experiment with Escherichia coli T-7, 1.56.

In the experiment on Escherichia coli 0-111 [1] (Table 3), `CC(=O)OCC1=C(C(=O)O)N2C(=O)C(NC(=O)/C(=N\O)c3csc(=N)[nH]3)C2SC1` (stereo not drawn) [Example 5, sodium 7-[2-(2-imino-4-thiazolin-4-yl)-2-hydroxyimino-acetamido]-3-acetoxymethyl-3-cephem-4-carboxylate (syn-isomer)] registered an ED50 of 0.033 mg/kg. The “Minimal inhibitory concentration (MIC)” value with Klebsiella pneumoniae DT was ≤ 0.012; with Proteus rettgeri GN4733, 0.024; with Proteus vulgaris GN4413, 12.5; in experiment [2] it was 0.05; in experiment [3] it was 0.10; with Serratia marcescens TN24, 1.56. The “Minimal inhibitory concentration (MIC)” value in the experiment with Proteus rettgeri TN338 was ≤ 0.012; in experiment [4], 0.39; with Proteus mirabilis GN4359 it was 0.05; in the experiment with Proteus morganii IFO3168, 0.20; in experiment [5] it was 0.05; in experiment [6], 0.024. The “Minimal inhibitory concentration (MIC)” value with Escherichia coli 0-111 [7] is reported as ≤ 0.012; in experiment [8], 6.25; in experiment [9] it was 0.39; in experiment [10], 0.05; in [11], 6.25; in the experiment with Escherichia coli T-7, 0.39.

In the experiment on Escherichia coli 0-111 [1] (Table 4), `Cn1cnnc1SCC1=C(C(=O)O)N2C(=O)C(NC(=O)/C(=N\O)c3csc(=N)[nH]3)C2SC1` (stereo not drawn) [Example 15, sodium 7-[2-(2-imino-4-thiazolin-4-yl)-2-hydroxyimino-acetamido]-3-(4-methyl-1,2,4-triazol-3-yl)thiomethyl-3-cephem-4-carboxylate (syn-isomer)] gave an ED50 of 0.016 mg/kg. Also, the “Minimal inhibitory concentration (MIC)” value turned out to be 0.024 with Klebsiella pneumoniae DT; 0.10 in the experiment on Proteus rettgeri GN4733; 3.13 in the experiment on Proteus vulgaris GN4413; 0.05 in experiment [2]; 0.05 in [3]; 0.78 in the experiment with Serratia marcescens TN24. Also, the “Minimal inhibitory concentration (MIC)” value is recorded as ≤ 0.012 in the experiment on Proteus rettgeri TN338; 0.78 in experiment [4]; 0.10 in the experiment on Proteus mirabilis GN4359; 0.024 with Proteus morganii IFO3168; 0.05 in experiment [5]; 0.024 in experiment [6]. In addition, the “Minimal inhibitory concentration (MIC)” value in the experiment with Escherichia coli 0-111 [7] is listed as ≤ 0.012; in [8], 1.56; in [9], 0.78; in [10], 0.05; in [11] it was 0.78; in the experiment on Escherichia coli T-7, 0.39.

`N=c1[nH]c(C(=NO)C(=O)NC2C(=O)N3C(C(=O)[O-])=C(C[n+]4ccc(C(N)=O)cc4)CSC23)cs1` (stereo not drawn) [Example 17, 7-[2-(2-imino-4-thiazolin-4-yl)-2-hydroxyimino-acetamido]-3-(4-carbamoylpyridiniummethyl)-3-cephem-4-carboxylate (syn-isomer)]: the “Minimal inhibitory concentration (MIC)” value with Klebsiella pneumoniae DT is reported as 0.20; in the experiment with Proteus rettgeri GN4733 it was 0.20; in the experiment on Proteus vulgaris GN4413, 3.13; in [2], 1.56; in experiment [3] it was 0.78; with Serratia marcescens TN24 it was 0.78. Besides, the “Minimal inhibitory concentration (MIC)” value with Proteus rettgeri TN338 is on record as 0.05; in [4], 0.39; in the experiment on Proteus mirabilis GN4359, 0.39; with Proteus morganii IFO3168 it was 0.39; in experiment [5], 0.39; in experiment [6], 0.39. Besides, the “Minimal inhibitory concentration (MIC)” value in the experiment with Escherichia coli 0-111 [7] is on record as 0.20; in experiment [8] it was 12.5; in [9], 0.39; in experiment [10] it was 0.20; in [11], 1.56; in the experiment on Escherichia coli T-7 it was 25.

As to `O=C(Cc1cccs1)N[C@@H]1C(=O)N2C(C(=O)[O-])=C(C[n+]3ccccc3)CS[C@H]12` [Cephaloridine, 7-(2-thienylacetamido)-3-(1-pyridyl)methyl-3-cephem-4-carboxylic acid betaine, reference compound], the 50% effective dose (ED50) was found to be 2.6 mg/kg in the experiment with Escherichia coli 0-111 [1] (Table 3) and 1.81 mg/kg in the experiment with Escherichia coli 0-111 [1] (Table 4). The “Minimal inhibitory concentration (MIC)” value is on record as 1.56 in the experiment on Klebsiella pneumoniae DT; > 100 with Proteus rettgeri GN4733; > 100 in the experiment with Proteus vulgaris GN4413; 12.5 in experiment [2]; > 100 in experiment [3]; > 100 in the experiment on Serratia marcescens TN24. Besides, the “Minimal inhibitory concentration (MIC)” value in the experiment on Proteus rettgeri TN338 was 1.56; in experiment [4] it was 0.39; in the experiment on Proteus mirabilis GN4359, 6.25; in the experiment with Proteus morganii IFO3168, > 100; in experiment [5] it was 6.25; in experiment [6], 3.13. Moreover, the “Minimal inhibitory concentration (MIC)” value was 1.56 with Escherichia coli 0-111 [7]; > 100 in experiment [8]; 0.05 in [9]; 50 in experiment [10]; > 100 in experiment [11]; > 100 in the experiment on Escherichia coli T-7.
